Test results from PubChem BioAssay (NCI).
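Briefly, cells in 96-well plates were exposed to five compound concentrations for 48 h, and endpoints were estimated by linear interpolation. The concentration for 50% growth inhibition is given as GI50. The concentration for full growth arrest is given as TGI.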

Columns and labels:
Experiment in all cases: NCI tumour cell line growth inhibition, 48 h; in the data active = GI50 below about 0.43 µM; inactive = the rest
[1] = tested on: 786-0 renal
[2] = tested on: A498 renal
[3] = tested on: A549 NSCLC
[4] = tested on: ACHN renal
[5] = tested on: BT-549 breast
[6] = tested on: CAKI-1 renal
[7] = tested on: CCRF-CEM leukemia
[8] = tested on: COLO 205 colon
[9] = tested on: DU-145 prostate
[10] = tested on: HCC-2998 colon
[11] = tested on: HCT-116 colon
[12] = tested on: HCT-15 colon
[13] = tested on: HL-60(TB) leukemia
[14] = tested on: HOP-62 NSCLC
[15] = tested on: HOP-92 NSCLC
[16] = tested on: HS 578T breast
[17] = tested on: HT29 colon
[18] = tested on: IGROV1 ovarian
[19] = tested on: K-562 leukemia
[20] = tested on: KM12 colon
[21] = tested on: LOX IMVI melanoma
[22] = tested on: M14 melanoma
[23] = tested on: MALME-3M melanoma
[24] = tested on: MCF7 breast
[25] = tested on: MDA-MB-231 breast
[26] = tested on: MDA-MB-435
[27] = tested on: MOLT-4 leukemia
[28] = tested on: NCI-H226 lung
[29] = tested on: NCI-H23 lung

CCOC(=O)Nc1nc2cc(OC)c(OC)c(OC)c2s1
> 100 µM: TGI [1] | TGI [2] | TGI [3] | TGI [4] | TGI [5] | TGI [6] | TGI [7] | TGI [8] | TGI [9] | TGI [10] | TGI [11] | TGI [12] | TGI [13] | TGI [16] | TGI [17] | TGI [18] | TGI [19] | TGI [20] | TGI [21] | TGI [22] | TGI [23] | TGI [24] | TGI [25] | TGI [26] | TGI [27] | TGI [28]
inactive: GI50 [1] 61.2 µM | GI50 [2] 26.2 µM | GI50 [3] > 100 µM | GI50 [4] 46.9 µM | GI50 [5] > 100 µM | GI50 [6] > 100 µM | GI50 [7] > 100 µM | GI50 [8] > 100 µM | GI50 [9] > 100 µM | GI50 [10] > 100 µM | GI50 [11] > 100 µM | GI50 [12] > 100 µM | GI50 [13] > 100 µM | GI50 [14] 24.9 µM | GI50 [15] 15.8 µM | GI50 [16] 17.5 µM | GI50 [17] > 100 µM | GI50 [18] 91 µM | GI50 [19] > 100 µM | GI50 [20] > 100 µM | GI50 [21] > 100 µM | GI50 [22] > 100 µM | GI50 [23] > 100 µM | GI50 [24] > 100 µM | GI50 [25] 31.5 µM | GI50 [26] > 100 µM | GI50 [27] > 100 µM | GI50 [28] 73.7 µM | GI50 [29] 28.5 µM
74.9 µM: TGI [15]
95.6 µM: TGI [14]
